Data taken from ChEMBL document CHEMBL1201862, “PubChem BioAssay data set” (2004).
The source made the active and inactive calls.

Experiments:
[1] = molecular target: DNA dC->dU-editing enzyme APOBEC-3A (Homo sapiens, UniProt P31941); assay: APOBEC3A DNA deaminase inhibitors, dose response, biochemical (AID 504722); assay type: functional
[2] = molecular target: Beta Lactamase (Pseudomonas aeruginosa, UniProt Q932Y6); assay: beta-lactamase reporter inhibitor potency, dose response, artefact control for NOD2-RIPK2 interaction inhibitor project, BLA reporter cells, FRET fluorescence (AID 651552); assay type: functional, cell-based
Beta Lactamase, sequence (Q932Y6 whole entry, the tested form may be a part): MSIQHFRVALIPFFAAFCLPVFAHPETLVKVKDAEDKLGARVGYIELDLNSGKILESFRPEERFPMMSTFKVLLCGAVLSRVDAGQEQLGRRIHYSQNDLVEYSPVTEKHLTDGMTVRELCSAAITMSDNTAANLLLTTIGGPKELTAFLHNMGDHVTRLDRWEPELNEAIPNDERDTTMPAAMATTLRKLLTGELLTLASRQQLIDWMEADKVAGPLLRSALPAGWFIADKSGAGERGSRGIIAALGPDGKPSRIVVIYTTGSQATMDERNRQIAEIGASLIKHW

[3] = Fluorescence-based cell-based high throughput dose response assay for inhibitors of the interaction of nucleotide-binding oligomerization domain containing 2 (NOD2) and the receptor-interacting serine-threonine kinase 2 (RIPK2).; assay type: functional; conditions: Homo sapiens
[4] = cytotoxicity toward NIH3T3 fibroblasts, dose response, counter-screen, cell-based, ATP luminescence, mouse fibroblasts (AID 2010); assay type: functional;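 note: cells exposed to compound for about 90 hours before reading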
[5] = inhibitors of intracellular T. cruzi replication, confirmation, NIH3T3 host cells, beta-gal luminescence (AID 2044); assay type: functional, cell-based;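 note: intracellular parasites grown in NIH/3T3 mouse fibroblasts as host cells; luminescent beta-galactosidase reporter signal from transgenic T. cruzi replicating inside host cells; inhibitors lower the luminescence signal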
[6] = molecular target: DNA dC->dU-editing enzyme APOBEC-3G (Homo sapiens, UniProt Q9HC16); assay: Dose Response confirmation of small molecule APOBEC3G DNA Deaminase Inhibitors via a fluorescence-based single-stranded DNA deaminase assay. [Related pubchem assays (depositor defined):AID493012, AID493028]; assay type: functional
DNA dC->dU-editing enzyme APOBEC-3G, sequence (Q9HC16 whole entry): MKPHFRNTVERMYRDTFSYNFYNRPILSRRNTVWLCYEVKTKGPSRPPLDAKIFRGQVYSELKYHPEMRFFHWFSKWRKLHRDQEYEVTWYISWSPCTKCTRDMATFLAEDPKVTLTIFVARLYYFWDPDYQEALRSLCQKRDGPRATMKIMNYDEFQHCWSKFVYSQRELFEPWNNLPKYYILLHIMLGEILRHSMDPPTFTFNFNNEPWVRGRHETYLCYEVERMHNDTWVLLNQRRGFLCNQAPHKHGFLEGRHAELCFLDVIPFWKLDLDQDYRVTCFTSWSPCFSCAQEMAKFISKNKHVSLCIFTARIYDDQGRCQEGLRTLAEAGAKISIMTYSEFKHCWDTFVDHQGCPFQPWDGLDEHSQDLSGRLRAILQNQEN

[7] = molecular target: Glucose-6-phosphate 1-dehydrogenase (Homo sapiens, UniProt P11413); assay: human G6PD enzyme inhibitors, dose response, selectivity assay for P. falciparum G6PD inhibitor project, biochemical, fluorescence (AID 504792); assay type: functional
Glucose-6-phosphate 1-dehydrogenase, sequence (P11413 whole entry): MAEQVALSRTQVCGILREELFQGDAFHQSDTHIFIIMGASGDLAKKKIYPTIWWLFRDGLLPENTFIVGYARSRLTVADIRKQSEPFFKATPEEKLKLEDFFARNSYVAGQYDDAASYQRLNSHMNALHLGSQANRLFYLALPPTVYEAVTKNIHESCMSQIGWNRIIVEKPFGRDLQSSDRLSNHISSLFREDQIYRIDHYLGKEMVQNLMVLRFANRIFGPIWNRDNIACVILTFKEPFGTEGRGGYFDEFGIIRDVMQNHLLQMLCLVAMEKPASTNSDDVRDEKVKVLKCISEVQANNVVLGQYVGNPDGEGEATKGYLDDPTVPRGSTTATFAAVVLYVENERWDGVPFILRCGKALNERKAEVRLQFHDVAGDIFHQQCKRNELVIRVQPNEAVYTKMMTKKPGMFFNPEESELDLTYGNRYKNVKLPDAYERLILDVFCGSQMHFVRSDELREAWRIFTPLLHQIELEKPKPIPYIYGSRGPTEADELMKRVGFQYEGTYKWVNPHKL

[8] = AlphaScreen signal interference compounds, dose response, artefact control for ARNT-TACC3 interaction inhibitor project, biochemical, luminescence, cherry-pick (AID 651705); assay type: functional;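 note: AlphaScreen bead proximity signal that flags compounds interfering with the detection technology; potency reflects signal decrease which marks the compound as an assay artifact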
[9] = THP-1 cell cytotoxicity, dose response, cytotoxicity control for non-replicating M. tuberculosis project (AID 489025); assay type: functional
[10] = cells; assay type: functional
[11] = Vero E6 cell cytotoxicity, dose response, cytotoxicity control for non-replicating M. tuberculosis project, secondary assay (AID 492998); assay type: functional, VeroE6; conditions: Vero C1008
[12] = molecular target: Mitochondrial peptide methionine sulfoxide reductase (Bos taurus, UniProt P54149); assay type: functional;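 note: absorbance read-out, biochemical high-throughput dose-response screen for MsrA inhibitors, confirmatory; recombinant bovine MsrA coupled to E. coli TrxB with NADPH and selenocystamine; potency is for inhibitors of MsrA activity on DMSO substrate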
Mitochondrial peptide methionine sulfoxide reductase, sequence (P54149 whole entry): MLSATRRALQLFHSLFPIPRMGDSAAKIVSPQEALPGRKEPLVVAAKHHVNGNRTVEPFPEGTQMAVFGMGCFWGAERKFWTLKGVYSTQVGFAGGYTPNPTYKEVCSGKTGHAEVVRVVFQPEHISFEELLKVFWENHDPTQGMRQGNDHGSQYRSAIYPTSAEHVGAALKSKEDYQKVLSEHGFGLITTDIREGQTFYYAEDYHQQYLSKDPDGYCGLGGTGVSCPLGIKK

[13] = miR-122 activators in hepatoma reporter cells, dose response, cell-based, Huh7 psiCHECK-miR122, Renilla luciferase, cherry-picked (AID 651956); assay type: functional;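 note: huh7 hepatoma cells stably carrying a psiCHECK-2 miR-122 sensor plasmid; renilla luciferase signal reporting endogenous miR-122 activity after 48 h compound exposure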
[14] = molecular target: Large T antigen (Simian virus 40, UniProt P03070); assay type: functional, Betapolyomavirus macacae;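 note: Confirmatory-stage PubChem screen for compounds that inhibit SV40 T antigen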
Large T antigen, sequence (P03070 whole entry): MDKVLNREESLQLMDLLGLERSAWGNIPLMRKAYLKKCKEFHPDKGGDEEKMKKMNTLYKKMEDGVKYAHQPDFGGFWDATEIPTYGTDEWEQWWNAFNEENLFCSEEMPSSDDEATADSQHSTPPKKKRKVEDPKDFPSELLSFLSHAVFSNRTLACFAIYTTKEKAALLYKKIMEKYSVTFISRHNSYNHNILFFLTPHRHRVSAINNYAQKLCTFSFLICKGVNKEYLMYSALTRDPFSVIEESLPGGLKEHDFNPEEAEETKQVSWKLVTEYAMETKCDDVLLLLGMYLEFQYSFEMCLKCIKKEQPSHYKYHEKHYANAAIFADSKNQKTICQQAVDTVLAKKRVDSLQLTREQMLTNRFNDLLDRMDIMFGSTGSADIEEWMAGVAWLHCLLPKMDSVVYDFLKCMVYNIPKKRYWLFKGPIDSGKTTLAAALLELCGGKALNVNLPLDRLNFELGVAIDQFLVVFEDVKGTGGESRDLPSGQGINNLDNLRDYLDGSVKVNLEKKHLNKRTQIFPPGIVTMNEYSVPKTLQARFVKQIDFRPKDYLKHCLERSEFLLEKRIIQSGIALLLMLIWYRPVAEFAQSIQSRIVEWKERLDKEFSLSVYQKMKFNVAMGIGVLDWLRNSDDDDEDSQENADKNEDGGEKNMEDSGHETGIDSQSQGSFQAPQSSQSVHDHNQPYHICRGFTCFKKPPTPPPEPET

[15] = molecular target: T1, High affinity choline transporter 1 (Homo sapiens, UniProt Q9GZV3); assay: CHT inhibitors, dose response, cell-based, 5-point CRC, membrane potential dye (AID 504840); assay type: functional
T1 sequence (Q9GZV3 whole entry): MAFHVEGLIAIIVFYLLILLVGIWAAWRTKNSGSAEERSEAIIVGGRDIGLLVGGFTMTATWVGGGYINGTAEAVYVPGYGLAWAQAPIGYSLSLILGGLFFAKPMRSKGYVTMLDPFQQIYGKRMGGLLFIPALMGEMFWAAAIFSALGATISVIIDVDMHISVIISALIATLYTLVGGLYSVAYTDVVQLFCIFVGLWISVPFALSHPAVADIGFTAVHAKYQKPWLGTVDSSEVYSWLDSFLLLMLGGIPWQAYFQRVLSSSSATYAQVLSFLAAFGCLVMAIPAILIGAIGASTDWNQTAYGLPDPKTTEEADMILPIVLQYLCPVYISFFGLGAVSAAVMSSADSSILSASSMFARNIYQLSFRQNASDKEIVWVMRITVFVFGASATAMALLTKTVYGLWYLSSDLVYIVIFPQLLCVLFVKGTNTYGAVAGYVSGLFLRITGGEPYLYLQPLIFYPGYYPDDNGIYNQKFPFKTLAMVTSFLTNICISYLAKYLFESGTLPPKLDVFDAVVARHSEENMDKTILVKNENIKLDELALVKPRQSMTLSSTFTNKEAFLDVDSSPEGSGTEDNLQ

[16] = molecular target: T2, Rac GTPase-activating protein 1 (Homo sapiens, UniProt Q9H0H5); assay: MgcRacGAP GTPase-activating activity inhibitors, confirmation, biochemical, ADP Hunter fluorescence, primary and confirmatory (AID 624330); assay type: functional
T2 sequence (Q9H0H5 whole entry): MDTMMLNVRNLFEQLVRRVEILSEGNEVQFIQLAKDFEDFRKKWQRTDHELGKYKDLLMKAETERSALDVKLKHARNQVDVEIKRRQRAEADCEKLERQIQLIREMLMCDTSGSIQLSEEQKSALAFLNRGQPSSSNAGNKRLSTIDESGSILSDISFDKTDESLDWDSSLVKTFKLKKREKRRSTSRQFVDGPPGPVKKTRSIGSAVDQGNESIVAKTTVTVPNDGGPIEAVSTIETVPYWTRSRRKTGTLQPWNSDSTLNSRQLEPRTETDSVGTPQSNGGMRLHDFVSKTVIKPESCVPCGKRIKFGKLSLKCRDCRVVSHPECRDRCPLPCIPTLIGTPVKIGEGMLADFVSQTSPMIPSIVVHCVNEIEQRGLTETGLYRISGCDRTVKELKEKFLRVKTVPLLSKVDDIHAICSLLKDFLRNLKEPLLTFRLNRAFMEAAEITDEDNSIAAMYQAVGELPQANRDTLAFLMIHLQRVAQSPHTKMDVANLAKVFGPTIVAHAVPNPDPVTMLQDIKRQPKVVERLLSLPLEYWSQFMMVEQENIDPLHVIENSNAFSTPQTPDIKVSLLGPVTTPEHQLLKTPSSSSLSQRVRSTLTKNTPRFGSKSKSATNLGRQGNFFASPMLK

[17] = HeLa cell cytotoxicity, dose response, cytotoxicity control for MgcRacGAP inhibitor project (AID 624300); assay type: functional
[18] = molecular target: T3, Tyrosine-protein phosphatase non-receptor type 22 (Homo sapiens, UniProt Q9Y2R2); assay: LYP phosphatase inhibition for selectivity, dose response, selectivity assay for LMPTP inhibitor project, biochemical, fluorescence, LYP catalytic domain (AID 652006); assay type: functional; conditions: read-out: IC50_Mean
T3 sequence (Q9Y2R2 whole entry): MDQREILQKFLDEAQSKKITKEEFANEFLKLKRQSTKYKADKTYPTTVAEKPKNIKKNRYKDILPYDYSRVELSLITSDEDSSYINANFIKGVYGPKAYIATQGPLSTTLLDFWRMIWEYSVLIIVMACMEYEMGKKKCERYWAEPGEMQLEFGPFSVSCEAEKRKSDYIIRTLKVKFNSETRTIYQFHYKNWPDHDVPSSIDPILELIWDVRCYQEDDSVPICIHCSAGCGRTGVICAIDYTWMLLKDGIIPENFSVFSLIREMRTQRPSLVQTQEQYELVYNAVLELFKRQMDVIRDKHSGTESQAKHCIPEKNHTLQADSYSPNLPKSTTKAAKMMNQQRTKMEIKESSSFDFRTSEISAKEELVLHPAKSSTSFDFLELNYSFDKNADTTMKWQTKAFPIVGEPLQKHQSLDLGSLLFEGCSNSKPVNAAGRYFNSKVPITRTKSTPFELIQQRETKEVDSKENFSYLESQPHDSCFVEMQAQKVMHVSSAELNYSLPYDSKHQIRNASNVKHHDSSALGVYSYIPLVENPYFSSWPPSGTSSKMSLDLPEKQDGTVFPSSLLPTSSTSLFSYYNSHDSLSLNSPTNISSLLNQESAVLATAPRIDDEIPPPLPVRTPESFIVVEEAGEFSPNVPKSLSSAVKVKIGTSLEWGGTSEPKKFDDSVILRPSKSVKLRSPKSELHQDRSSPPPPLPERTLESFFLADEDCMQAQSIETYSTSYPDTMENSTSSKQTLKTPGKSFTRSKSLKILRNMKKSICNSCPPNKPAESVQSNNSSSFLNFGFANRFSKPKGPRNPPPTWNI

[19] = molecular target: T4, Low molecular weight phosphotyrosine protein phosphatase (Homo sapiens, UniProt P24666); assay type: functional; conditions: read-out: IC50_Mean;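 note: Dose-response confirmation assay measuring inhibition of LMPTP enzyme activity by fluorescence intensity read-out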
T4 sequence (P24666 whole entry): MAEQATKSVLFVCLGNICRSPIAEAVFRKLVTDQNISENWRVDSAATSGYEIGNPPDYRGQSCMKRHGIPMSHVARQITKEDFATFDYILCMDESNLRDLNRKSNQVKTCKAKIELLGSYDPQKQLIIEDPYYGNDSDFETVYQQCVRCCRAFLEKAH

[20] = NIH/3T3 fibroblast cytotoxicity, dose response, cytotoxicity control for T. cruzi growth inhibitor project, cell-based, cherry-pick samples, set 2 (AID 651817); assay type: functional; conditions: NIH3T3

DNA dC->dU-editing enzyme APOBEC-3A, sequence (P31941 whole entry): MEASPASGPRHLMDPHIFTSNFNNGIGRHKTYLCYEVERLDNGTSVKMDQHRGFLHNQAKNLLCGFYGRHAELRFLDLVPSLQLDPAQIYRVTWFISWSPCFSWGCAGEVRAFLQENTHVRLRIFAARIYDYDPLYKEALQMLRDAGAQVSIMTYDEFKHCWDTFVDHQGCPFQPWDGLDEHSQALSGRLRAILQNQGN

Which IC50 [1] does the source give for `Cc1cc(C)c2c(=O)n(CC(=O)Nc3ccc(Cl)cc3)sc2n1` here?
Its IC50 is > 100 µM (inactive).

What about the IC50 [2] of the same compound?
Its IC50 is 23.6 µM (inactive).

And the IC50 [3]?
The IC50 was 9.56 µM (active).

And the EC50 [4]?
The EC50 was > 30 µM (not active).

What about the EC50 [5] of the same compound?
Its EC50 is 1.39 µM (active).

What about the IC50 [6] of the same compound?
The IC50 was 3.35 µM (active).

And the IC50 [7]?
Its IC50 is 20.7 µM (inactive).

What does the source list for `c1ccc(-c2nc3ccccn3c2NC2CCCC2)nc1`?
AC50 [8]: 87.6 µM (active); CC50 [9]: 28.8 µM (active); IC50 [10]: 4.27 µM (active); CC50 [11]: > 20 µM (active)

For `O=C(NCCc1ccccc1)c1ccc(=O)oc1`, which IC50 [12] is on record?
Its IC50 is 144 µM (inactive).

Which AC50 [13] does the source give for `CCCNC(=O)C[C@H]1CC[C@@H]2[C@@H](COc3ccc(NC(=O)c4ccc(C(F)(F)F)cc4)cc3C(=O)N2C)O1` here?
Its AC50 is 26.9 µM (active).

For `COc1cc(/C=C2/C(=O)ON=C2c2ccccc2)ccc1O`, which IC50 [14] is on record?
Its IC50 is 9.98 µM (active).

What about the IC50 [15] of the same compound?
Its IC50 is 9.6 µM (active).

What about the IC50 [16] of the same compound?
The IC50 was 100 µM (active).

And the CC50 [17]?
The CC50 was 100 µM (active).

For `CC1C(=O)N(Cc2cn(Cc3ccco3)nn2)CCS(=O)(=O)N1Cc1ccc(-c2cccnc2)cc1` (stereo not given), which IC50 [18] is on record?
The IC50 was 26.6 µM (inactive).

And the IC50 [19]?
Its IC50 is 15.2 µM (active).

With `C[C@H]1CN([C@@H](C)CO)C(=O)c2cccc(NC(=O)NC3CCCCC3)c2O[C@H]1CN(C)S(=O)(=O)c1ccc(F)cc1` as the compound, how does the AC50 [20] read?
Its AC50 is 28.7 µM (active).
